Measurements as given in patent EP0221208B1, “Hair growth promoting compositions” (MEIJI SEIKA KAISHA LTD., priority 1985, dated 1987).

System: Cynomolgus monkeys (Crab-eating macaques)
Test: Increase in temperature of the true skin after application to the skin surface (Test No. 2, net effect TE)
Assay type: in vivo
Settings: Test (ii); ester as penetration agent at 0.5% (w/v) or more in gel-like tonic formulation containing Substance MH-548
Method: For the purpose of confirming whether Substance P or Substance P-related peptide of the formula (II) is actually effective to increase the blood flow in the capillary blood vessels at a local area of the skin, we have conducted some experiments where the hair growth promoting formulation of this invention was applied to a local skin surface of monkies, and an increase in the temperature of the underlying true skin tissue below the local skin surface was measured, which should be considered to be invoked by such increase in the local blood flow at the local skin site owing to the vasodilating activity of Substance P or Substance P-related peptide of the formula (II).
Cynomolgus monkeys (Crab-eating macaques) (female, body weight 3.8-4.2 kg) were fixed each in a device for fixing the monkey. The hair was cut off from an area in the upper arms of each monkey. A probe of a thermometer for measurement of the temperature in a deep place (a thermometer commercially available from Telmo Co., Ltd., Japan) was sent into the hair-removed areas of each upper arm of the monkey, and the temperature in the true skin layer of the left and right upper arms of the monkey was measured before the administration of the active peptide for promoting the hair growth was made. […]
Thus, the following parameters were evaluated. […]

CCOC(=O)CCCCCCCCC(=O)OCC [di-ethyl sebacate]
effect of increasing the temperature in the true skin (TE): better effect than isopropyl myristate and di-isopropyl adipate
